Measurements from ChEMBL document CHEMBL4311943, “3-[(1S,2S,3R)-2,3-Difluoro-1-hydroxy-7-methylsulfonylindan-4-yl]oxy-5-fluorobenzonitrile (PT2977), a Hypoxia-Inducible Factor 2α (HIF-2α) Inhibitor for the Treatment of Clear Cell Renal Cell Carcinoma” (J Med Chem, 2019).
In brackets after ≈: the same amount, converted by molar mass. Activity calls are given as the source filed them. The calls are words filed in the database; no cut-off is given here.

What was measured:
[1] = target: T1, UDP-glucuronosyltransferase 2B17 (Homo sapiens, UniProt O75795); test: Substrate activity at recombinant human UGT2B17 expressed in baculovirus infected insect cell membranes assessed as enzyme-mediated glucuronidation by measuring Vmax per mg protein at 50 uM preincubated for 5 mins followed by UDPGA addition and measured after 60 mins by LC-MS/MS analysis; type: ADME; conditions: 1 h
T1 sequence (O75795 whole entry): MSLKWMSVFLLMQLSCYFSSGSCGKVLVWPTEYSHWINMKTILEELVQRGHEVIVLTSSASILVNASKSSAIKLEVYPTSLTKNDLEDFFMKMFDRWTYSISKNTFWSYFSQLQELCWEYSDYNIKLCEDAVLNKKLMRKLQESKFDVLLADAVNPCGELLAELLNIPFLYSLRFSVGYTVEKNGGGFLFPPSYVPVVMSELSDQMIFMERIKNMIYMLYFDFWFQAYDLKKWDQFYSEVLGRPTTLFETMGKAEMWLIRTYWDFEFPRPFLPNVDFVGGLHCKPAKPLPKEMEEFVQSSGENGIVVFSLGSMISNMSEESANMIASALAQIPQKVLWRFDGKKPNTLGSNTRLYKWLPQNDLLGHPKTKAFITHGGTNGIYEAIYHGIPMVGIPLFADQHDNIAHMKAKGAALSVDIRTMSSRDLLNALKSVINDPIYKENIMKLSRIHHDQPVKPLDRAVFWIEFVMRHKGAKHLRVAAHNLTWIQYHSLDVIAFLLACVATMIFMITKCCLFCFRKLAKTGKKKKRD

UGT2B17 [2] = target: T2, UGT2B17 (Homo sapiens, UniProt O75795); test: Substrate activity at recombinant human UGT2B17 expressed in baculovirus infected insect cell membranes assessed as enzyme-mediated glucuronidation by measuring Km at 50 uM preincubated for 5 mins followed by UDPGA addition and measured after 60 mins by LC-MS/MS analysis; type: ADME
T2 sequence (O75795 whole entry): T1 sequence (O75795 whole entry)

[3] = target: T1, UDP-glucuronosyltransferase 2B17; test: Substrate activity at UGT2B17 in human intestinal microsomes assessed as enzyme-mediated glucuronidation by measuring Vmax per mg protein at 2 to 1000 uM preincubated for 5 mins followed by UDPGA addition and measured after 60 mins by LC-MS/MS analysis; type: ADME, Intestine; conditions: 1 h
UGT2B17 [4] = target: T2, UGT2B17; test: Substrate activity at UGT2B17 in human intestinal microsomes assessed as enzyme-mediated glucuronidation by measuring Km at 2 to 1000 uM preincubated for 5 mins followed by UDPGA addition and measured after 60 mins by LC-MS/MS analysis; type: ADME, Intestine
[5] = Drug metabolism in human hepatocytes assessed as PT2639 formation by HPLC-UV analysis; type: ADME, cell-based, Hepatocyte
[6] = Protein binding in human plasma at 10 uM measured after 4 hrs by LC-MS/MS analysis; type: ADME, cell-free; conditions: read-out: PPB (converted)
[7] = Lipophilicity, log D of the compound at pH 7.4; type: physicochemical; conditions: buffer
[8] = Drug metabolism in po dosed dog urine assessed as PT2639 formation; type: ADME, organism-based, Canis lupus familiaris; conditions: in vivo
[9] = Thermodynamic aqueous solubility of the compound at pH 7.4; type: physicochemical; conditions: buffer, read-out: Therm_solubility
[10] = target: UDP-glucuronosyltransferase 1A3 (Homo sapiens, UniProt P35503); test: Substrate activity at recombinant human UGT1A3 expressed in baculovirus infected insect cell membranes assessed as enzyme-mediated glucuronidation by measuring PT2639 formation at 50 uM preincubated for 5 mins followed by UDPGA addition and measured after 60 mins by LC-MS/MS analysis; type: ADME; conditions: 1 h
[11] = target: UDP-glucuronosyltransferase 1A7 (Homo sapiens, UniProt Q9HAW7); test: Substrate activity at recombinant human UGT1A7 expressed in baculovirus infected insect cell membranes assessed as enzyme-mediated glucuronidation by measuring PT2639 formation at 50 uM preincubated for 5 mins followed by UDPGA addition and measured after 60 mins by LC-MS/MS analysis; type: ADME; conditions: 1 h
[12] = Protein binding in mouse plasma at 10 uM measured after 4 hrs by LC-MS/MS analysis; type: ADME, cell-free; conditions: read-out: PPB (converted)
[13] = Dose normalized AUClast in CD-1 mouse at 10 mg/kg, po administered via gavage by UPLC-MS analysis; type: ADME, organism-based; conditions: in vivo
[14] = Dose normalized AUClast in Sprague-Dawley rat at 10 mg/kg, po administered via gavage by UPLC-MS analysis; type: ADME, organism-based; conditions: in vivo
[15] = Dose normalized AUClast in Beagle dog at 5 mg/kg, po administered via gavage by UPLC-MS analysis; type: ADME, organism-based, Canis lupus familiaris; conditions: in vivo
[16] = Dose normalized AUClast in monkey at 10 mg/kg, po administered via gavage by UPLC-MS analysis; type: ADME, organism-based, Macaca mulatta; conditions: rhesus monkey, in vivo
Mus musculus = test: In vivo inhibition of HIF-2alpha in SCID Beige mouse xenografted with human 786-O cells assessed as reduction in cyclin D1 mRNA expression at 10 mg/kg, po administered twice daily via gavage for 3 days measured 12 hrs post-last dose by qRT-PCR analysis; type: functional, organism-based
[17] = Drug level in plasma of SCID Beige mouse xenografted with human 786-O cells at 10 mg/kg, po administered twice daily via gavage for 3 days measured 12 hrs post-last dose; type: ADME, organism-based
786-0 = test: Antitumor activity against human 786-O cells xenografted in SCID Beige mouse assessed as tumor regression at 10 mg/kg, po administered twice daily via gavage for 3 days measured 12 hrs post-last; type: functional, organism-based
Homo sapiens = test: In vivo inhibition of HIF-2alpha in patient with advanced solid tumor assessed as reduction in EPO expression at >500 ng/ml, po administered once daily; type: organism-based
[18] = Cmin in patient with advanced solid tumor at 800 mg, po administered twice daily measured on day 15 measured after 12 hrs; conditions: human, in vivo
[19] = target: T3, Endothelial PAS domain-containing protein 1 (Homo sapiens, UniProt Q99814); test: Inhibition of N-(3-Chlorophenyl-4,6-t2)-4-nitrobenzo[c][1,2,5]oxadiazol-5-amine binding to his-tagged HIF-2alpha PAS-B domain (unknown origin) measured after 1 hr by scintillation proximity assay
T3 sequence (Q99814 whole entry, the tested form may be a part): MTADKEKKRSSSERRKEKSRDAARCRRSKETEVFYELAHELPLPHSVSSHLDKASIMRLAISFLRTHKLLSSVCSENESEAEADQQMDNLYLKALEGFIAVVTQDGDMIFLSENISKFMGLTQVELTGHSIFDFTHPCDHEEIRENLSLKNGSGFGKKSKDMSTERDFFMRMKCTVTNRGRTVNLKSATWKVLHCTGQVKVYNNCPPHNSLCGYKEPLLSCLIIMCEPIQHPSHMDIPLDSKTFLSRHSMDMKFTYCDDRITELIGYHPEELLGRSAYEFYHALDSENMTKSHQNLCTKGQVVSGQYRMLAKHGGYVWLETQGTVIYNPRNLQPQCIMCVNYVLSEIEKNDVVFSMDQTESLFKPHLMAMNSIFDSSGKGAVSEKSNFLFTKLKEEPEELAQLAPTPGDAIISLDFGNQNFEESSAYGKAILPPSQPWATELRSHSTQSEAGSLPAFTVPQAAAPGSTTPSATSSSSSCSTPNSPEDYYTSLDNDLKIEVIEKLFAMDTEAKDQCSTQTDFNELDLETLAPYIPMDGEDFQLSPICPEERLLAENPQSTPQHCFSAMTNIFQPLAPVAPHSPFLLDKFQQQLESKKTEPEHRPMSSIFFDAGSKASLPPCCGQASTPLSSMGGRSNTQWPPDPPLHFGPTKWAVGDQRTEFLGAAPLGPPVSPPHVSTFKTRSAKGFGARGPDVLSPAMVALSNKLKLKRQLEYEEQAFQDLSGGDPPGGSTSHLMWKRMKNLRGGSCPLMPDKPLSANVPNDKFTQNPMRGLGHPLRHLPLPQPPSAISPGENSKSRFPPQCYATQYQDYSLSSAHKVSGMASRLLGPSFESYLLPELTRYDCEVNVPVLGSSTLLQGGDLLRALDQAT

[20] = target: T3, Endothelial PAS domain-containing protein 1
Description: Inhibition of HIF-2alpha (unknown origin) expressed in human 786-O cells measured after 24 hrs by one-glo luciferase reporter gene assay

[21] = Drug metabolism in iv or po dosed dog assessed as PT2385 formation; type: ADME, organism-based, Canis lupus familiaris; conditions: in vivo
[22] = Drug level in human hepatocytes treated with PT2385 assessed as metabolite formation by HPLC-UV analysis; type: ADME, cell-based, Hepatocyte
BCRP (ABCG2) = BCRP (ABCG2) (Homo sapiens, UniProt Q9UNQ0); test: Substrate activity at BCRP (unknown origin) expressed in MDCK2 cells assessed as efflux ratio of permeability at up to 300 uM; type: ADME, cell-based
Chain of BCRP (ABCG2) (Q9UNQ0 whole entry): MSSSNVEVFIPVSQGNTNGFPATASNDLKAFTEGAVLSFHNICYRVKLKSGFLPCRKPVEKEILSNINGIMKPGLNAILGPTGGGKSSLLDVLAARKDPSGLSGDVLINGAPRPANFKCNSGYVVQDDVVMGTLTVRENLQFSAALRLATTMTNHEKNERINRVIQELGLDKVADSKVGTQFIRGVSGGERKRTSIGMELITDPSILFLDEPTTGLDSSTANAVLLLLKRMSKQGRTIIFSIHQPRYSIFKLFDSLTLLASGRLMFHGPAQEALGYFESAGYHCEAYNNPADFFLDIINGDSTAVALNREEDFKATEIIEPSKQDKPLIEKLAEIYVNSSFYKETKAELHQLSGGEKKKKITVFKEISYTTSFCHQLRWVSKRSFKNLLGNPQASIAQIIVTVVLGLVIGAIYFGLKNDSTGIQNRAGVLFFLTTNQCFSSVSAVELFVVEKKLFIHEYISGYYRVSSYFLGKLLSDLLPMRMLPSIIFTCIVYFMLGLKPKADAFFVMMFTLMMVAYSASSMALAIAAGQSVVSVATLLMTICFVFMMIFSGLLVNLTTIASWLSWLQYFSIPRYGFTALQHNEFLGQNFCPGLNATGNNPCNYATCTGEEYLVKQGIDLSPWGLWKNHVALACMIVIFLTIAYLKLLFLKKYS

P-gp (ABCB1) = P-gp (ABCB1) (Homo sapiens, UniProt P08183); test: Substrate activity at P-gp (unknown origin) expressed in MDCK2 cells assessed as efflux ratio of permeability at up to 300 uM; type: ADME, cell-based; conditions: MDCK-MDR1
Chain of P-gp (ABCB1) (P08183 whole entry): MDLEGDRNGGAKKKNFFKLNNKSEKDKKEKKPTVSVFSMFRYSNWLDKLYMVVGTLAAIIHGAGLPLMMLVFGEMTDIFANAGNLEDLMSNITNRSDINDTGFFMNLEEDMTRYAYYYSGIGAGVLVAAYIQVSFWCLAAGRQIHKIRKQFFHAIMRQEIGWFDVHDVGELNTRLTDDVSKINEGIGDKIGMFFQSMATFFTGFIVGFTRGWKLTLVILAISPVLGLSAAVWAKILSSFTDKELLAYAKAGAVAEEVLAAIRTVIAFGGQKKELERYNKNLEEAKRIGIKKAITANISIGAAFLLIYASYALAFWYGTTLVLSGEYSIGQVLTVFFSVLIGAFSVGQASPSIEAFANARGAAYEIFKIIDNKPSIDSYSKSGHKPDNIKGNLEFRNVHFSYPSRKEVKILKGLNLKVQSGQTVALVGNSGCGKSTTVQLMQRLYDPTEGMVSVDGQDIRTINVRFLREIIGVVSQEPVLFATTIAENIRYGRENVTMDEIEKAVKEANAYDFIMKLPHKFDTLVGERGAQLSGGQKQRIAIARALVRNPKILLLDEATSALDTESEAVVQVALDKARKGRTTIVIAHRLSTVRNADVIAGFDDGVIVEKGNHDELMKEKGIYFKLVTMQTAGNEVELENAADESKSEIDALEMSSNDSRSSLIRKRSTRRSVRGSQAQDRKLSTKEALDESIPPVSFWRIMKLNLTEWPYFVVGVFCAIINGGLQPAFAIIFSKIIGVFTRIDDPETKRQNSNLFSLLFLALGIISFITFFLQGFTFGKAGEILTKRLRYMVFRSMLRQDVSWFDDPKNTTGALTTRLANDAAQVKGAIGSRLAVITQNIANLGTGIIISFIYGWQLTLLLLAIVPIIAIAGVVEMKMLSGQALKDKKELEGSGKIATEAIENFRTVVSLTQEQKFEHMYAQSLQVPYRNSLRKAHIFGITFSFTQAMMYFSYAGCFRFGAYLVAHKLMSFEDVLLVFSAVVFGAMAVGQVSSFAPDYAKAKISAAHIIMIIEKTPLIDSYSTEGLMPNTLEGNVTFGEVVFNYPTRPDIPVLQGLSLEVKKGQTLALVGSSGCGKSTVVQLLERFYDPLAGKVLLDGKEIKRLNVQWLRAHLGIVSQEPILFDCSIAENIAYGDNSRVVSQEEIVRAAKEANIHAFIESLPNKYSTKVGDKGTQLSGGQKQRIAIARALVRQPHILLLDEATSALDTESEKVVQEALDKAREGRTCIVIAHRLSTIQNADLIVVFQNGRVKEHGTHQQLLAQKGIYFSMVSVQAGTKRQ

[23] = target: T4, ATP-binding cassette sub-family C member 2 (Homo sapiens, UniProt Q92887); test: Ratio of compound effect for substrate activity at human MRP2 expressed in Sf9 membrane vesicles assessed as protein-mediated drug uptake in presence of ATP to compound effect for substrate activity at human MRP2 expressed in Sf9 membrane vesicles assessed as protein-mediated drug uptake in absence of ATP; type: ADME, cell membranes
T4 sequence (Q92887 whole entry): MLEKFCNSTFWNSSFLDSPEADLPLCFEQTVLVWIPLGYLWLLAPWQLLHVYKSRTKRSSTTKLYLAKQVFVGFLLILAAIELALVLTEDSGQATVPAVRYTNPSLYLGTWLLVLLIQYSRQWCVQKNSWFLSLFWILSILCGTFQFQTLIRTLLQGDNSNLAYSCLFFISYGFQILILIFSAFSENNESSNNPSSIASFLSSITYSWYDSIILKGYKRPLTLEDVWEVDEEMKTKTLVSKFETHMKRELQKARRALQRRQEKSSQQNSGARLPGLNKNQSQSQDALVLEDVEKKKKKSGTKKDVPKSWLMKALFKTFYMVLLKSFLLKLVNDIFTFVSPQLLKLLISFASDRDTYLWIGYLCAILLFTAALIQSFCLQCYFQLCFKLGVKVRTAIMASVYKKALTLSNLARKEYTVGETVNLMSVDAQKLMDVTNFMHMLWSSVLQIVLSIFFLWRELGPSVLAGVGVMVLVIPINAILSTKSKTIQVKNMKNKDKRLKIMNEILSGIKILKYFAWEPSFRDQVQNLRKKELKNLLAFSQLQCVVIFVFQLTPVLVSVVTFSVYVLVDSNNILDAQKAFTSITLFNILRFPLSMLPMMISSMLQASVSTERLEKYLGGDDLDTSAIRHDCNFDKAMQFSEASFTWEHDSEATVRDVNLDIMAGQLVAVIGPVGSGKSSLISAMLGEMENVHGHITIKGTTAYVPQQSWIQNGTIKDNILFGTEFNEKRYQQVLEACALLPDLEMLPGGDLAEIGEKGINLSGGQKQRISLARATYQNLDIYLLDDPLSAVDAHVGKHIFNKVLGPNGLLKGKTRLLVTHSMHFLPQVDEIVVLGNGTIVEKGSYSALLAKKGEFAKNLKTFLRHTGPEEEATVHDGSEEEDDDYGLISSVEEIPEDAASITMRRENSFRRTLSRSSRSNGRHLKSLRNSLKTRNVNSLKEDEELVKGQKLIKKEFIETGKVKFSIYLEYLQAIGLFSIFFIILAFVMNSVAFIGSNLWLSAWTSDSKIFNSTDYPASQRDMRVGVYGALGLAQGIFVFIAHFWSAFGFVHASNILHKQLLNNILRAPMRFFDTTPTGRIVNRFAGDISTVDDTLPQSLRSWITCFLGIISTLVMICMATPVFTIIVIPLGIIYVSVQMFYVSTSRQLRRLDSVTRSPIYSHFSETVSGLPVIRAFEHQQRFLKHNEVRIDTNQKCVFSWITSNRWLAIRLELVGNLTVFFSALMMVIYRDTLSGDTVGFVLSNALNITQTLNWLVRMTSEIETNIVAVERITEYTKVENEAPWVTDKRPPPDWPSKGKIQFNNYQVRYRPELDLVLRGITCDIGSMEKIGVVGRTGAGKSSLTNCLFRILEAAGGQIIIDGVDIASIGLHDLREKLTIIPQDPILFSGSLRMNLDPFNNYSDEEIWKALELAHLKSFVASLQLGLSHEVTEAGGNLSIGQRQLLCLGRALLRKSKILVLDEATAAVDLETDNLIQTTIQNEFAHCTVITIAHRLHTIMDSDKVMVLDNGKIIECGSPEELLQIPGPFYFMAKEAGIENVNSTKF

[24] = target: T4, ATP-binding cassette sub-family C member 2; test: Substrate activity at human MRP2 expressed in Sf9 membrane vesicles assessed as Vmax per mg protein; type: ADME
MRP2 (ABCC2) = MRP2 (ABCC2) (Homo sapiens, UniProt Q92887); test: Substrate activity at human MRP2 expressed in Sf9 membrane vesicles assessed as Km; type: ADME; conditions: Sf9 membrane vesicles expressing human MRP2
Chain of MRP2 (ABCC2) (Q92887 whole entry): as above

Beta-glucuronidase = Beta-glucuronidase (Escherichia coli (strain K12), UniProt P05804); test: Drug metabolism assessed as Escherichia coli beta-glucuronidase-mediated PT2385 formation after 30 mins by LC-MS/MS analysis; type: ADME; conditions: isolated protein, 0.5 h
Chain of Beta-glucuronidase (P05804 whole entry): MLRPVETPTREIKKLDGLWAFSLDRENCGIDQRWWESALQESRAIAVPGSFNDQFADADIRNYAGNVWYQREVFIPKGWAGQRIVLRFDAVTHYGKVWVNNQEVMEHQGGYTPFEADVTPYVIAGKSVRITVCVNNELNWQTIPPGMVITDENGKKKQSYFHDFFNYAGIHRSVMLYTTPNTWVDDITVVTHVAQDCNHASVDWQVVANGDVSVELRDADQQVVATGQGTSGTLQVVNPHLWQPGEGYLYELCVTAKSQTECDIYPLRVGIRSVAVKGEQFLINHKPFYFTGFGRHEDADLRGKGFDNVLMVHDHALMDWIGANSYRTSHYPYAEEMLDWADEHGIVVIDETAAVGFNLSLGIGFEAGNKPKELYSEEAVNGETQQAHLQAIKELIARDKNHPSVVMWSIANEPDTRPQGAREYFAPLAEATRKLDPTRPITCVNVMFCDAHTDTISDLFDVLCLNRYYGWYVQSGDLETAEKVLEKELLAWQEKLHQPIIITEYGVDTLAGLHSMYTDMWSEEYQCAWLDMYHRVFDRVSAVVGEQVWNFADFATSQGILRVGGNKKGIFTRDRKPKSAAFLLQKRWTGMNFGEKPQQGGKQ

Compound | Vmax [1] [pmol/min] | Km at 1 h, 50 µM (UGT2B17 [2]) [µM] | Vmax [3] [pmol/min] | Km at 1 h, up to 1000 µM (UGT2B17 [4]) [µM] | IC50 [19] [nM] | further results
CS(=O)(=O)c1ccc(Oc2cc(F)cc(C#N)c2)c2c1[C@H](O)[C@H](F)C2 | 14 | 15 | 2.1 | 28 | – | –
CS(=O)(=O)c1ccc(Oc2cc(F)cc(C#N)c2)c2c1[C@H](O)[C@@H](F)C2 | 50 | 15 | 11 | 26 | – | –
CS(=O)(=O)c1ccc(Oc2cc(F)cc(C#N)c2)c2c1[C@H](O)C(F)(F)C2 | 280 | 11 | 49 | 20 | – | Drug metabolism [5]: Metabolite_Detected; fraction unbound at 4 h, 10 µM [6]: 0.18; logD [7]: 2.2; Drug metabolism [8]: Metabolite_Detected; solubility thermodynamic [9]: 15 µg/mL (≈ 39.1 µM); Drug metabolism [10]: Metabolite_Notdetected; Drug metabolism [11]: Metabolite_Notdetected; fraction unbound at 4 h, 10 µM [12]: 0.29; AUClast/dose [13]: 21 µM·h; AUClast/dose [14]: 5.1 µM·h; AUClast/dose [15]: 7.2 µM·h; AUClast/dose [16]: 3.1 µM·h; inhibition (Mus musculus): Active; concentration at 12 h [17]: 260 ng/mL; Activity (786-0): Active; inhibition (INH) (Homo sapiens): Active; concentration at 12 h [18]: 860 ng/mL
CS(=O)(=O)c1ccc(Oc2cc(F)cc(C#N)c2)c2c1[C@H](O)C[C@H]2F | – | – | – | – | > 10000 | –
CS(=O)(=O)c1ccc(Oc2cc(F)cc(C#N)c2)c2c1[C@H](O)CC2 | 3.8 | 12 | 0.8 | 40 | – | –
CS(=O)(=O)c1ccc(Oc2cc(F)cc(C#N)c2)c2c1[C@H](O)C(F)(F)[C@@H]2F | 440 | 5.5 | 72 | 15 | 9 | EC50 [20]: 4 nM
CS(=O)(=O)c1ccc(Oc2cc(F)cc(C#N)c2)c2c1[C@H](O)C[C@@H]2F | 1.4 | 12 | 0.3 | 130 | 210 | EC50 [20]: 460 nM
CS(=O)(=O)c1ccc(Oc2cc(F)cc(C#N)c2)c2c1[C@H](O[C@@H]1O[C@H](C(=O)O)[C@@H](O)[C@H](O)[C@H]1O)C(F)(F)C2 | – | – | – | – | – | Drug metabolism [21]: Metabolite_Detected; Drug metabolism [22]: Metabolite_Detected; efflux ratio (BCRP (ABCG2)): < 2; efflux ratio (P-gp (ABCB1)): < 2; Ratio [23]: 32; Vmax [24]: 1230 pmol/min; Km (MRP2 (ABCC2)): 97 µM; Drug metabolism (Beta-glucuronidase): Metabolite_Detected
